Results on 28 compounds are retold here after patent US20240246992A1, “MACROCYCLIC LRRK2 KINASE INHIBITORS” (LES LABORATOIRES SERVIER, priority 2021, published 2024).

human recombinant LRRK2 protein, sequence (Q5S007 whole entry): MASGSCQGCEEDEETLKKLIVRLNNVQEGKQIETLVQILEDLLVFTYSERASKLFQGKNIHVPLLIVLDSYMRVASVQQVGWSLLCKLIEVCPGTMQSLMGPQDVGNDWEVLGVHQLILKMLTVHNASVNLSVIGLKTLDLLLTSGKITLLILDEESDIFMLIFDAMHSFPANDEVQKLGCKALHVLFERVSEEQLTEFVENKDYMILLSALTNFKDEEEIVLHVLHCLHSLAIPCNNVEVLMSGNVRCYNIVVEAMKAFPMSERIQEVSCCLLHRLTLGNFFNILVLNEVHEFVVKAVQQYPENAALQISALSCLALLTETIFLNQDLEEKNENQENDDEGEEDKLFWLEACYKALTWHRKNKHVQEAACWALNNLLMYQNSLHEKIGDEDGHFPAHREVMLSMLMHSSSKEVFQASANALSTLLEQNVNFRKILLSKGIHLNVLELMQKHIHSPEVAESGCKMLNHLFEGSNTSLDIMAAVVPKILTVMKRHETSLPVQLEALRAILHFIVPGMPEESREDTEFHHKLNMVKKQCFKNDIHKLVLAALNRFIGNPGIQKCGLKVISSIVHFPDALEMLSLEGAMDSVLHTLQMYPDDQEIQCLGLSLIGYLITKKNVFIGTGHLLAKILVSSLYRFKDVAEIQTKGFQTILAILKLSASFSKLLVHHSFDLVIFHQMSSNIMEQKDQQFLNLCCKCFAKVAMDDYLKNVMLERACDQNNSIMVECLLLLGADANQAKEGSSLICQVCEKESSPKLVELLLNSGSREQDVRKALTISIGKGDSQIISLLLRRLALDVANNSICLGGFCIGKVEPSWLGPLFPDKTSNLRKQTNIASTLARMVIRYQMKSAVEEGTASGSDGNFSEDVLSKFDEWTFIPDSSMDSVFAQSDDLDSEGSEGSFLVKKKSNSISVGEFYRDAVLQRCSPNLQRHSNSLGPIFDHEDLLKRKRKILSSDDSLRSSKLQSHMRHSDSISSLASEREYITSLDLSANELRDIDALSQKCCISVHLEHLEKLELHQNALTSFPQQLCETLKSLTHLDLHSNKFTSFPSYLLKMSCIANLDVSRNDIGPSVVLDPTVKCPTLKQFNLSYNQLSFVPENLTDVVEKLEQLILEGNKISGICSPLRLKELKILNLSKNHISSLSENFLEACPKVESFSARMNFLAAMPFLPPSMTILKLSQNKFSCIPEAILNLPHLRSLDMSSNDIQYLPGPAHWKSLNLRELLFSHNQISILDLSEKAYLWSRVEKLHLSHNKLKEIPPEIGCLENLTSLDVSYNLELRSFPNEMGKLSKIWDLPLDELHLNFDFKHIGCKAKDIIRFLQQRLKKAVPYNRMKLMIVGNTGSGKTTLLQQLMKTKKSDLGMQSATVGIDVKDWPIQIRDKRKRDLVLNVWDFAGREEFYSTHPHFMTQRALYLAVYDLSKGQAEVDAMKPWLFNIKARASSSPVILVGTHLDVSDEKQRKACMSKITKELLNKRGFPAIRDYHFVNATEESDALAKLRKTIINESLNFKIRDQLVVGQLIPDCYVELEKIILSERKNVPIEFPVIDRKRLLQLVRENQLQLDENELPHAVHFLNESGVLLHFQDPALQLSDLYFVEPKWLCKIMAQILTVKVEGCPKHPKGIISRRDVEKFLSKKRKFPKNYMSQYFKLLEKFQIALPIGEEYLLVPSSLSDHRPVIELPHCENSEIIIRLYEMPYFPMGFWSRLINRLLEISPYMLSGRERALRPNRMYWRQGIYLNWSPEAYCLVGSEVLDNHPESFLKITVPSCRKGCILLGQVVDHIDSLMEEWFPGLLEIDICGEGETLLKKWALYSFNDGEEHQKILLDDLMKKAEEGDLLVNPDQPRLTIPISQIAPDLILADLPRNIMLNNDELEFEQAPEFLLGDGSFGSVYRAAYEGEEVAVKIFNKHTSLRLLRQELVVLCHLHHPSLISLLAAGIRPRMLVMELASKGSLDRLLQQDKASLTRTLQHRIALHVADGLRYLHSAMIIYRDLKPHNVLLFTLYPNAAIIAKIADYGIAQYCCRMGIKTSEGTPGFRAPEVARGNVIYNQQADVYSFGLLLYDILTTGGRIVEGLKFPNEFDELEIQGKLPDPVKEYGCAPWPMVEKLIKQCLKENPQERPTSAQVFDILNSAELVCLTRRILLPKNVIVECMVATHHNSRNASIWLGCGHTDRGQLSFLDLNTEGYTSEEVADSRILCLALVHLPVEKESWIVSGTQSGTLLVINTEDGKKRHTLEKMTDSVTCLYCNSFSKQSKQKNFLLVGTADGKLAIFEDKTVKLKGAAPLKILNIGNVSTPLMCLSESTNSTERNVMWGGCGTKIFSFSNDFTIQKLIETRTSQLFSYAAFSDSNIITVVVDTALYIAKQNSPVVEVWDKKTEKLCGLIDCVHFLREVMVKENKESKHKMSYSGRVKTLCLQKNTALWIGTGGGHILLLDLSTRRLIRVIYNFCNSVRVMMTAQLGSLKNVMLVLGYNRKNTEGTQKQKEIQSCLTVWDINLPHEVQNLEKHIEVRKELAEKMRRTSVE

The target of this assay is human recombinant LRRK2 protein (Homo sapiens, UniProt Q5S007). Briefly: LRRK2 kinase activity assay (ADP-Glo, LRRKtide peptide). It counts as biochemical. The settings on record: human recombinant LRRK2 wt, LRRKtide peptide and ATP, 1 h at 37° C. On the procedure:
The inhibition of LRRK2 kinase was assessed using human recombinant LRRK2 protein in an in vitro peptide-based kinase assay.
LRRK2 Kinase reactions were carried out in 384-well white polystyrene plates in a final volume of 6 μl using ADP-Glo™ Kinase Assay kit (Promega Corp.). Compound and substrates (LRRKtide peptide and ATP) in assay buffer were first dispensed in wells. Kinase reaction was then started by the addition of human recombinant LRRK2 protein. After 1 h-incubation at 37° C., the enzymatic reactions was stopped by the addition of 6 μl of ADP-Glo Reagent-1 and an additional 40-minutes incubation at 23° C. (residual ATP depletion). A final 30-minutes incubation after 12 μL reagent-2 addition (ADP to ATP conversion and luciferin/luciferase reaction) was performed before luminescent signal acquisition (EnVision™ multimode plate reader—PerkinElmer, Inc.). Data from 10 individual concentrations of tested compounds (N=2) were fitted (XLfit™—ID Business Solutions Ltd) to deliver IC50s (compound concentration leading to 50% inhibition of reference enzymatic activity).
The compounds are dissolved to 5 mM in DMSO. When needed, solutions are sonicated in a bath sonicator.
Table 2 provides the pIC50 values of the compounds according to the invention, obtained using the above mentioned kinase assay. Activities are represented as +++, ++ and +, having the following meanings: • «+++» means an IC50<10 nM • «++» means an IC50<100 nM • «+» means an IC50<1 μM • «−» means an IC50>1 μM
Regarding `C[C@@H]1CCOCC[C@H](C)Oc2ccc3[nH]nc(c3c2)-c2cnn1c2` [Example 25, (6R,12S)-6,12-dimethyl-9,13-dioxa-4,5,18,19-tetraazatetracyclo[12.5.2.1^2,5.0^17,20]docosa-1(19),2(22),3,14(21),15,17(20)-hexaene], the concentration for half-maximal inhibition (IC50) (as a rule, the concentration that inhibits the measured activity by half) was less than 100 nM.

For the compound `CN1CCCNc2ccc3[nH]nc(c3c2)-c2cncc(c2)OCC1=O` [Example 190, 10-methyl-7-oxa-4,10,14,19,20-pentaazatetracyclo[13.5.2.1^2,6.0^18,21]tricosa-1(20),2,4,6(23),15,17,21-heptaen-9-one], the IC50 was less than 100 nM.

Take `C[C@@H]1COCCOCCOc2ccc3[nH]nc(c3c2)-c2cnn1c2` [Example 65, (6R)-6-methyl-8,11,14-trioxa-4,5,19,20-tetraazatetracyclo[13.5.2.1^2,5.0^18,21] tricosa-1(20),2(23),3,15(22),16,18(21)-hexaene]: the IC50 was less than 10 nM. Turning to `O=C1COc2nccc(n2)-c2n[nH]c3ccc(cc23)OCCCN1` [Example 196, 7,14-dioxa-5,10,19,20,23-pentaazatetracyclo[13.5.2.1^2,6.0^18,21]tricosa-1(20),2(23),3,5,15(22),16,18(21)-heptaen-9-one], the IC50 is less than 10 nM.

Regarding `O=C1COc2cc(cc(C(F)(F)F)c2)-c2n[nH]c3ccc(cc23)OCCCN1` [Example 185, 4-(trifluoromethyl)-7,14-dioxa-10,19,20-triazatetracyclo [13.5.2.1^2,6.0^18,21]tricosa-1(20),2,4,6(23),15,17,21-heptaen-9-one], the IC50 is less than 10 nM. Consider `C[C@@H]1CCO[C@@H](C)CCOc2ccc3[nH]nc(c3c2)-c2cnn1c2` [Example 116, (6R,10S)-6,10-dimethyl-9,13-dioxa-4,5,18,19-tetraazatetracyclo[12.5.2.1^2,5.0^17,20]docosa-1(19),2(22),3,14(21),15,17(20)-hexaene], for which the IC50 is less than 100 nM.

With `CC(C)Oc1cc2cc(c1)-c1n[nH]c3ccc(cc13)OCCCN(C)CCO2` [Example 239, 10-methyl-4-(propan-2-yloxy)-7,14-dioxa-10,19,20-triazatetracyclo[13.5.2.1^2,6.0^18,21]tricosa-1(20),2,4,6(23),15,17,21-heptaene], the IC50 was less than 100 nM. Turning to `c1nn2cc1-c1n[nH]c3cnc(cc13)OCCOCCOCC2` [Example 96, 8,11,14-trioxa-4,5,16,19,20-pentaazatetracyclo[13.5.2.1^2,5.0^18,21]tricosa-1(20),2(23),3,15(22),16,18(21)-hexaene], the IC50 is less than 100 nM. On to `c1cc2[nH]nc3c2cc1OCCCCOCCn1cc-3cn1` [Example 102, 8,13-dioxa-4,5,18,19-tetraazatetracyclo[12.5.2.1^2,5.0^17,20]docosa-1(19),2(22),3,14(21),15,17(20)-hexaene], for which the IC50 is less than 10 nM.

As for `O=C1CCn2ncc(n2)-c2n[nH]c3ccc(cc23)OC[C@@H](F)CN1` [Example 225, (11S)-11-fluoro-13-oxa-4,5,9,18,19,22-hexaazatetracyclo [12.5.2.1^2,5.0^17,20]docosa-1(19),2(22),3,14(21),15,17(20)-hexaen-8-one], the IC50 was less than 10 nM. For `Cc1cc2cc(c1)-c1n[nH]c3ccc(cc13)OCCCNCCO2` [Example 145, 4-methyl-7,14-dioxa-10,19,20-triazatetracyclo[13.5.2.1^2,6.0^18,21]tricosa-1(20),2(23),3,5,15,17,21-heptaene] the value was less than 10 nM; for `c1cc2[nH]nc3c2cc1OCCOCCCCn1cc-3cn1` [Example 104, 10,13-dioxa-4,5,18,19-tetraazatetracyclo[12.5.2.1^2,5.0^17,20]docosa-1(19),2(22),3,14(21),15,17(20)-hexaene], less than 10 nM. With `C[C@H]1COCCOC[C@H](C)n2cc(cn2)-c2n[nH]c3ccc(cc23)O1` [Example 101, (6S,13S)-6,13-dimethyl-8,11,14-trioxa-4,5,19,20-tetraazatetracyclo[13.5.2.1^2,5.0^18,21]tricosa-1(20),2(23),3,15(22),16,18(21)-hexaene], the IC50 is less than 10 nM. In the case of `CN1CCCOc2ccc3[nH]nc(c3c2)-c2cncc(c2)OCCC1=O` [Example 198, 11-methyl-7,15-dioxa-4,11,20,21-tetraazatetracyclo [14.5.2.1^2,6.0^19,22] tetracosa-1(21),2,4,6(24),16,18,22-heptaen-10-one], the IC50 was less than 1000 nM. As for `COCC1CCOc2ccc3[nH]nc(c3c2)-c2cccc(c2)OCC(=O)N1` (single isomer, unassigned) [Example 152, (11R) or (11S)-11-(methoxymethyl)-7,14-dioxa-10,19,20-triazatetracyclo[13.5.2.1^2,6.0^18,21]tricosa-1(20),2(23),3,5,15,17,21-heptaen-9-one], the IC50 was less than 100 nM. Regarding `COC1CN(c2cc3nc(n2)OCCOCC[C@H](C)Nc2ccc4[nH]nc-3c4c2)C1` [Example 34, (13S)-4-(3-methoxyazetidin-1-yl)-13-methyl-7,10-dioxa-5,14,19,20,23-pentaazatetracyclo[13.5.2.1^2,6.0^18,21]tricosa-1(20),2,4,6(23),15(22),16, 18(21)-heptaene], the half-maximal inhibitory concentration (IC50) is less than 10 nM. Turning to `CC1(C)Oc2cncc(c2)-c2n[nH]c3ccc(cc23)OCCCNC1=O` [Example 201, 8,8-dimethyl-7,14-dioxa-4,10,19,20-tetraazatetracyclo [13.5.2.1^2,6.0^18,21]tricosa-1(20),2(23),3,5,15,17,21-heptaen-9-one], the IC50 was less than 10 nM. As to `O=C1COc2cc(-c3ccoc3)cc(c2)-c2n[nH]c3ccc(cc23)OCCCN1` [Example 213, 4-(furan-3-yl)-7,14-dioxa-10,19,20-triazatetracyclo[13.5.2.1^2,6.0^18,21]tricosa-1(20),2(23),3,5,15,17,21-heptaen-9-one], the half-maximal inhibitory concentration (IC50) is less than 10 nM. As to `C[C@@H]1CCOCC(F)(F)Cn2cc(cn2)-c2n[nH]c3ccc(cc23)O1` [Example 120, (12R)-7,7-difluoro-12-methyl-9,13-dioxa-4,5,18,19-tetraazatetracyclo [12.5.2.1^2,5.0^17,20]docosa-1(19),2(22),3,14(21),15,17(20)-hexaene], the 50% inhibitory concentration (IC50) was less than 10 nM. For `c1cc2nc(c1)-c1n[nH]c3ccc(cc13)OCCCNCCO2` [Example 237, 7,14-dioxa-10,19,20,23-tetraazatetracyclo[13.5.2.1^2,6.0^18,21]tricosa-1(20),2,4,6(23),15,17,21-heptaene], the 50% inhibitory concentration (IC50) was less than 10 nM.

As to `C[C@H]1COc2ccc3[nH]nc(c3c2)-c2cnn(c2)CCCOCCO1` [Example 129, (13S)-13-methyl-9,12,15-trioxa-4,5,20,21-tetraazatetracyclo[14.5.2.1^2,5.0^19,22]tetracosa-1(21),2(24),3,16(23),17,19(22)-hexaene], the IC50 is less than 100 nM. For `C[C@H]1CCn2cc(cn2)-c2n[nH]c3ccc(cc23)OCCCO1` [Example 37, (8S)-8-Methyl-9,13-dioxa-4,5,18,19-tetraazatetracyclo[12.5.2.1^2,5.0^17,20] docosa-1(19),2(22),3,14(21),15,17(20)-hexaene], the IC50 was less than 10 nM.

In the case of `C[C@@H]1CCO[C@@H](C)CCn2cc(cn2)-c2n[nH]c3ccc(cc23)O1` [Example 97, (8S,12R)-8,12-dimethyl-9,13-dioxa-4,5,18,19-tetraaza tetracyclo[12.5.2.1^2,5.0^17,20]docosa-1(19),2(22),3,14(21),15,17(20)-hexaene], the IC50 was less than 10 nM. For `C[C@H]1COc2ccc3[nH]nc(c3c2)-c2cnn(c2)CCCCCO1` [Example 112, (12S)-12-methyl-11,14-dioxa-4,5,19,20-tetraazatetracyclo[13.5.2.1^2,5.0^18,21] tricosa-1(20),2(23),3,15(22),16,18(21)-hexaene], the half-inhibitory concentration (IC50) is less than 10 nM. Consider `CC1CNCCCOc2ccc3[nH]nc(c3c2)-c2cc(cc(N3CCOCC3)c2)O1` (single isomer, unassigned) [Example 178, (8R) or (8S)-8-methyl-4-(morpholin-4-yl)-7,14-dioxa-10,19,20-triazatetracyclo[13.5.2.1^2,6.0^18,21]tricosa-1(20),2,4,6(23),15,17,21-heptaene], for which the IC50 was less than 10 nM. For the compound `Cc1cc2nc(n1)OCCOCC[C@H](C)Nc1ccc3[nH]nc-2c3c1` [Example 40, (13S)-4,13-dimethyl-7,10-dioxa-5,14,19,20,23-pentaazatetracyclo[13.5.2.1^2,6.0^18,21]tricosa-1(20),2(23),3,5,15(22),16,18(21)-heptaene], the IC50 was less than 10 nM. For `C[C@H]1CCOC[C@H](C)Oc2ccc3[nH]nc(c3c2)-c2cncc(c2)O1` [Example 12, (8S,13S)-8,13-dimethyl-7,11,14-trioxa-4,19,20-triazatetracyclo[13.5.2.1^2,6.0^18,21]tricosa-1(20),2(23),3,5,15(22),16,18(21)-heptaene], the IC50 was less than 100 nM. Next, `c1cc2cc(c1)-c1n[nH]c3ccc(cc13)OCCCNCCO2` [Example 135, 7,14-dioxa-10,19,20-triazatetracyclo[13.5.2.1^2,6.0^18,21]tricosa-1(20),2(23),3,5,15(22),16,18(21)-heptaene]: less than 10 nM.
